pIC50: −log10 of the molar value.
Key:
[1] = target: T1, human sputum leucocyte elastase (Homo sapiens, UniProt P08246); assay: In vivo inhibitory activity: model of acute hemorrhagic edema in hamsters; set-up: It is a glycoprotein of 25 to 30 kDa formed from 218 amino acids; from tissue; host or cells: human sputum (purified preparation); details: hamster, 10 μg intratracheally 3 hours before elastase (50 units); hemoglobin in broncho-alveolar washing 3 hours after elastase
T1 sequence (P08246 30-247 limits assumed): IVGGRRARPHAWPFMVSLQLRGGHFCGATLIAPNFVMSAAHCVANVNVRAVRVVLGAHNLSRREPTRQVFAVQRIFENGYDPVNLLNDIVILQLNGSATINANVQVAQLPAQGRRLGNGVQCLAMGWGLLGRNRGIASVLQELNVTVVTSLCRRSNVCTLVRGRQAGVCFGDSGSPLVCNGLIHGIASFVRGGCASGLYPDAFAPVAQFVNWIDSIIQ
Method: In vivo inhibitory activity: model of acute hemorrhagic edema in hamsters
Tracheal instillation in hamsters of a purified preparation of human sputum leucocyte elastase leads to acute hemorrhaging which can be quantified by measuring the concentration of hemoglobin in the broncho-alveolar washing 3 hours after the elastase instillation.
The study is carried out on male hamsters weighing […] (Syrian Golden, n=10 per batch). The animals are anesthetized with pentobarbital at a dose of 40 mg/kg intraperitoneally.
The hamsters are anesthetized and the trachea is exposed surgically. The products to be tested are administered with the aid of a needle directly into the trachea in a volume of 0.1 ml at a dose of 10 μg. Human sputum leucocyte elastase is administered, 3 hours after administration of the product, intratracheally at a dose of 50 units per animal at a volume of 0.2 ml.
The animals are sacrificed with the aid of a lethal dose of pentobarbital 3 hours after instillation of elastase and a broncho-alveolar washing with physiological serum is carried out. The degree of hemorrhaging is quantified by a colorimetric method which makes it possible to quantitatively determine the hemoglobin concentration (Boehringer hemoglobin test combination).
The results are expressed in percentage of inhibition of hemorrhaging.

[2] = target: T1, human sputum leucocyte elastase; assay: Inhibitory activity for human leucocyte elastase in vitro; type: biochemical; set-up: It is a glycoprotein of 25 to 30 kDa formed from 218 amino acids; purchased Elastin Products Co; host or cells: human sputum (natural enzyme); details: methoxysuccinyl-Ala-Ala-Pro-Val paranitroanilide substrate, 15 min incubation, 37° C., pH 7.8
Method: This activity is measured by following the kinetics of hydrolysis of the substrate which leads to the release of paranitroaniline which absorbs at a wavelength of 410 nm.
Enzyme: Human sputum leucocyte elastase (Elastin Products Co.) solubilized at 1000 uI/ml of distilled water, and frozen in aliquots of 50 μl at -20° C.
Substrate: methoxysuccinyl-L-alanyl-L-alanyl-propyl-valine paranitroanilide (Sigma chimie).
Buffer: Tris 0.1M; NaCl 0.5M; pH=7.8.
10 μl of the product to be tested or of the solvent (concentrated×100)
10 μl of human sputum leucocyte elastase diluted to 1/10th
Stirring and incubation for 15 min at 37° C.
The reaction is started by addition of 10 μl of substrate.
The cell is introduced into the spectro- photometer, and the optical density is recorded as a function of time at 410 nm at 37° C.
The initial rate is measured for each product concentration (or solvent control) studied.
Percentages of inhibition with respect to the solvent control are calculated:
Percentage of inhibition=100×(control rate-rate of the product
The inhibitory concentrations 50 (IC50) are calculated from the percentages of inhibition by simple linear regression.

Compound	Inhibition (%) of hemorrhaging [1] [%]	pIC50 [2]
4-{[3-(3-Azabicyclo[3.3.0]octane)ureido]sulpfonyl}benzoyl-(S)-Val-(S)-Abo-(R,S)-Val-CF3 [Example 2]	57	7.60
CC(C)C(NC(=O)[C@@H]1[C@@H]2CC[C@@H](C2)N1C(=O)[C@@H](NC(=O)c1ccc(S(=O)(=O)NC(=O)c2ccccc2C(=O)N2CCSC2)cc1)C(C)C)C(=O)C(F)(F)F (stereo partly drawn) [Example 23, 4-[2-[(1,3-Thiazolidin-3-yl)carbonyl]benzoylaminosulfonyl]benzoyl-(S)-Val-(lS,3S,4R)-Abh-(R,S)-Val-CF3]	61	7.52
CC(C)C(NC(=O)c1ccc(S(=O)(=O)NC(=O)Nc2ccc(Cl)cc2)cc1)C(=O)N1C2CCC(CC2)C1C(=O)NC(C(=O)C(F)(F)F)C(C)C [Example 25, 4-(4-Chlorophenylureidosulfonyl)benzoyl-(S)-Val-(S)-Abo-(R,S)-Val-CF3]	63	7.47
CC(C)C(NC(=O)[C@@H]1C[C@@H]2CCCC[C@@H]2N1C(=O)[C@@H](NC(=O)c1ccc(S(=O)(=O)NC(=O)Nc2ccc(Cl)cc2)cc1)C(C)C)C(=O)C(F)(F)F (stereo partly drawn) [Example 26, 4-(4-Chlorophenylureidosulfonyl)benzoyl-(S)-Val-(2S,3aS,7aS)-Phi-(R,S)-Val-CF3]	64	7.51
CC(C)C(NC(=O)c1ccc(S(=O)(=O)NC(=O)C23CC4CC(CC(C4)C2)C3)cc1)C(=O)N1C2CCC(CC2)C1C(=O)NC(C(=O)C(F)(F)F)C(C)C [Example 28, 4-[(Adamant-1-yl)carbonylaminosulfonyl]benzoyl-(S)-Val-(S)-Abo-(R,S)-Val-CF3]	57	7.33
CC(C)C(NC(=O)[C@@H]1C[C@@H]2CCCC[C@@H]2N1C(=O)[C@@H](NC(=O)c1ccc(S(=O)(=O)NC(=O)Cc2cc(C(C)(C)C)c(O)c(C(C)(C)C)c2)cc1)C(C)C)C(=O)C(F)(F)F (stereo partly drawn) [Example 29, 4-[(3,5-Di-tert-butyl-4-hydroxybenzyl)carbonylaminosulfonyl]benzoyl-(S)-Val-(2S,3aS,7aS)-Phi-(R,S)-Val-CF3]	63	7.42
CC(C)C(NC(=O)[C@@H]1C[C@@H]2CCCC[C@@H]2N1C(=O)[C@@H](NC(=O)c1ccc(S(=O)(=O)NC(=O)c2ccc(CCN3CCC4(CC3)CNC(=O)O4)cc2)cc1)C(C)C)C(=O)C(F)(F)F (stereo partly drawn) [Example 32, 4-{4-[2-(1-Oxa-2-oxo-3,8-diazaspiro[4.5]dec-8-yl)ethyl]benzoylaminosulfonyl}benzoyl-(S)-Val-(2S,3aS,7aS)-Phi-(R,S)-Val-CF3]	42	7.38
CCOCC(O)COc1cc(C(=O)NS(=O)(=O)c2ccc(C(=O)N[C@H](C(=O)N3[C@H](C(=O)NC(C(=O)C(F)(F)F)C(C)C)C[C@@H]4CCCC[C@@H]43)C(C)C)cc2)ccc1OC (stereo partly drawn) [Example 35, 4-{[4-Methoxy-3-(3-ethoxy-2-hydroxypropoxy)-benzoyl]aminosulfonyl}benzoyl-(S)-Val-(2S,3aS,7aS)-Phi-(R,S)-Val-CF3]	47	7.43
CC(C)C(NC(=O)[C@@H]1C[C@@H]2CCCC[C@@H]2N1C(=O)[C@H](CCCCNC(=O)Cc1cc(C(C)(C)C)c(O)c(C(C)(C)C)c1)NC(=O)c1ccc(C(=O)NS(=O)(=O)c2ccc(Cl)cc2)cc1)C(=O)C(F)(F)F (stereo partly drawn) [Example 41, 4-(4-Chlorophenylsulfonylaminocarbonyl)benzoyl-[N-(3,5-di-tert-butyl-4-hydroxyphenyl)acetyl]-(S)-Lys-(2S,3aS,7aS)-Phi-(R,S)-Val-CF3]	41	7.15

Further compounds by rising pIC50 [2], results first:

Inhibition (%) of hemorrhaging [1] [%]	pIC50 [2]	Compound
38	7.54	CC(C)C(NC(=O)[C@@H]1C[C@@H]2CCCC[C@@H]2N1C(=O)[C@@H](NC(=O)c1ccc(S(=O)(=O)NC(=O)C(C2CC2)C2CC2)cc1)C(C)C)C(=O)C(F)(F)F (stereo partly drawn) [Example 27, 4-[(Dicyclopropylmethyl)carbonylaminosulfonyl]benzoyl-(S)-Val-(2S,3aS,7aS)-Phi-(R,S)-Val-CF3]
46	7.60	CC(C)C(NC(=O)[C@@H]1C2CCC(CC2)N1C(=O)[C@@H](NC(=O)c1ccc(S(=O)(=O)NC(=O)C(C2CC2)C2CC2)cc1)C(C)C)C(=O)C(F)(F)F (stereo partly drawn) [Example 24, 4-[(Dicyclopropylmethyl)carbonylaminosulfonyl]benzoyl-(S)-Val-(S)-Abo-(R,S)-Val-CF3]
38	7.72	CC(=O)N[C@@H](CSC(C)(C)C)C(=O)NS(=O)(=O)c1ccc(C(=O)N[C@H](C(=O)N2C3CCC(CC3)[C@H]2C(=O)NC(C(=O)C(F)(F)F)C(C)C)C(C)C)cc1 (stereo partly drawn) [Example 18, 4-[S-tert-Butyl-N-acetyl-(S)-cysteinylaminosulfonyl]benzoyl-(S)-Val-(S)-Abo-(R,S)-Val-CF3]
65	7.72	CC(C)C(NC(=O)[C@@H]1[C@@H]2CC[C@@H](C2)N1C(=O)[C@@H](NC(=O)c1ccc(C(=O)NS(=O)(=O)c2ccc(Cl)cc2)cc1)C(C)C)C(=O)C(F)(F)F (stereo partly drawn) [Example 22, 4-(4-Chlorophenylsulfonylaminocarbonyl)benzoyl-(S)-Val-(1S,3S,4R)-Abh-(R,S)-Val-CF3]
70	7.82	CC(C)C(NC(=O)[C@@H]1C2CCC(CC2)N1C(=O)[C@@H](NC(=O)c1ccc(C(=O)NS(=O)(=O)c2ccc(Cl)cc2)cc1)C(C)C)C(=O)C(F)(F)F (single isomer, unassigned) [Example 4]

— patent publication US5565429A, “Peptides derived from trifluoromethylketones” (Adir et Compagnie, priority 1992, dated 1996)
